Experimental data as given in ChEMBL document CHEMBL1201862, “PubChem BioAssay data set” (2004).
Calls of active or inactive are those of the source.

Experiments:
Mucolipin-3 = Mucolipin-3 (Homo sapiens, UniProt Q8TDD5); experiment: Dose response cell-based high-throughput screening assay for agonists of the transient receptor potential channel ML3 (TRPML3). [Related pubchem assays: 1526, 1424, 1448 ]; type: functional
Ion channel NompC = Ion channel NompC (Danio rerio, UniProt Q7T1G6); experiment: Fluorescence counterscreen assay for TRPML3 agonists: dose response cell-based high-throughput screening assay to identify agonists of the transient receptor potential channel N1 (TRPN1). [Related pubchem assays: 1526, 1424, 1448 ]; type: functional
[1] = target: T1, Corticotropin-releasing factor receptor 2/Corticotropin-releasing factor-binding protein (Homo sapiens, UniProt P24387+Q13324); experiment: Dose Response confirmation of uHTS hits for small molecule antagonists of the CRF-binding protein and CRF-R2 receptor complex.; type: functional; conditions: read-out: IC50_Mean
T1 sequence (Q13324 whole entry): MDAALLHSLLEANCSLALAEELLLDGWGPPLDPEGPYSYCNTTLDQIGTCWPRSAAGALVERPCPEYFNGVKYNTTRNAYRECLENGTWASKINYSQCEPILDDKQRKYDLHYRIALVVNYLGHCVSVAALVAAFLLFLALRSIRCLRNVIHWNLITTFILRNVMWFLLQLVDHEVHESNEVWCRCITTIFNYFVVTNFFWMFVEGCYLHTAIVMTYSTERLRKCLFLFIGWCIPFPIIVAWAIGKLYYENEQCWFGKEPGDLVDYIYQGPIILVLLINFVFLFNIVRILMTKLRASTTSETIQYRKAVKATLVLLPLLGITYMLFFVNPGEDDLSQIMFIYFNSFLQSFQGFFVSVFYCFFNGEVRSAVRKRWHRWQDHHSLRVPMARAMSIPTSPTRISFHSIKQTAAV
T1 sequence (P24387 whole entry): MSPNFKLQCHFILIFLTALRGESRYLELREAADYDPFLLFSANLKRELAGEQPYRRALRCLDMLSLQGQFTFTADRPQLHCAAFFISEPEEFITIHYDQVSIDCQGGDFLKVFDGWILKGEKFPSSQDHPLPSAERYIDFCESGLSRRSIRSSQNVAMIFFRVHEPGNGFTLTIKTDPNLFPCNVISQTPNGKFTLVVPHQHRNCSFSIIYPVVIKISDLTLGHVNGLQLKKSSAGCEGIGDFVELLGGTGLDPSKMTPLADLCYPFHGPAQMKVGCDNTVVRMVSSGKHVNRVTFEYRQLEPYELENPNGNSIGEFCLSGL

[2] = target: T1, Corticotropin-releasing factor receptor 2/Corticotropin-releasing factor-binding protein; experiment: activators of CRF receptor 2 with binding protein – uHTS hits, confirmation (AID 602473); type: functional; conditions: read-out: EC50_Mean
[3] = CRF-BP/CRF-R2 complex antagonists, dose response, cell-based, uHTS hits, 384-well (AID 651639); type: functional, Homo sapiens; conditions: read-out: IC50_Mean
[4] = Luminescent dose response cell-based high throughput screening assay for inhibitors of the Janus kinase 2 mutant JAK2V617F. [Related pubchem assays: 1446 (Primary screen.), 1521 (Confirmation assay.), 1486 (Counter screen.)]; type: functional
Vero [5] = experiment: cells; type: functional, cell-based; conditions: Chlorocebus sabaeus
Vero [6] = experiment: cells; type: functional; conditions: Chlorocebus sabaeus
Estrogen receptor = target: T2, Estrogen receptor (Homo sapiens, UniProt P03372); experiment: potentiators of ERα–SRC-1 coactivator binding, dose response, biochemical, TR-FRET, ERα LBD (AID 737)
T2 sequence (P03372 whole entry): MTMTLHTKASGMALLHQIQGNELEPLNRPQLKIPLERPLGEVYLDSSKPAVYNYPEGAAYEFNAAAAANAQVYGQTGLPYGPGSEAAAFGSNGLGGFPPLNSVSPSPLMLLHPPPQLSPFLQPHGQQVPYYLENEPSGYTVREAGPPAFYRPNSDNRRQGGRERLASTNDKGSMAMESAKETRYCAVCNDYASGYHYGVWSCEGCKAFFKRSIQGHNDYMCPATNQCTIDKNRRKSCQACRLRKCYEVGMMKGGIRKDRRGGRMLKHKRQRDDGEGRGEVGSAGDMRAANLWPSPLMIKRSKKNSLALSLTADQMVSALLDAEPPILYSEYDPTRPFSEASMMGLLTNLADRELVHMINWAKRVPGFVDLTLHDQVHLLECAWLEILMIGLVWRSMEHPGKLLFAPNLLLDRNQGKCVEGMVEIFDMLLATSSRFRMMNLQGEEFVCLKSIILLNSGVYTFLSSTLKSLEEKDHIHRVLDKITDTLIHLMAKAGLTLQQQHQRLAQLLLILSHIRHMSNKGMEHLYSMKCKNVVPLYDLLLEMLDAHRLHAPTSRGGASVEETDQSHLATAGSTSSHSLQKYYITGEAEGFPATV

[7] = target: T3, Voltage-gated N-type calcium channel alpha-1B subunit/Amyloid beta A4 precursor protein-binding family A member 1 (Homo sapiens, UniProt Q00975+Q02410); type: protein assay
T3 sequence (Q00975 whole entry): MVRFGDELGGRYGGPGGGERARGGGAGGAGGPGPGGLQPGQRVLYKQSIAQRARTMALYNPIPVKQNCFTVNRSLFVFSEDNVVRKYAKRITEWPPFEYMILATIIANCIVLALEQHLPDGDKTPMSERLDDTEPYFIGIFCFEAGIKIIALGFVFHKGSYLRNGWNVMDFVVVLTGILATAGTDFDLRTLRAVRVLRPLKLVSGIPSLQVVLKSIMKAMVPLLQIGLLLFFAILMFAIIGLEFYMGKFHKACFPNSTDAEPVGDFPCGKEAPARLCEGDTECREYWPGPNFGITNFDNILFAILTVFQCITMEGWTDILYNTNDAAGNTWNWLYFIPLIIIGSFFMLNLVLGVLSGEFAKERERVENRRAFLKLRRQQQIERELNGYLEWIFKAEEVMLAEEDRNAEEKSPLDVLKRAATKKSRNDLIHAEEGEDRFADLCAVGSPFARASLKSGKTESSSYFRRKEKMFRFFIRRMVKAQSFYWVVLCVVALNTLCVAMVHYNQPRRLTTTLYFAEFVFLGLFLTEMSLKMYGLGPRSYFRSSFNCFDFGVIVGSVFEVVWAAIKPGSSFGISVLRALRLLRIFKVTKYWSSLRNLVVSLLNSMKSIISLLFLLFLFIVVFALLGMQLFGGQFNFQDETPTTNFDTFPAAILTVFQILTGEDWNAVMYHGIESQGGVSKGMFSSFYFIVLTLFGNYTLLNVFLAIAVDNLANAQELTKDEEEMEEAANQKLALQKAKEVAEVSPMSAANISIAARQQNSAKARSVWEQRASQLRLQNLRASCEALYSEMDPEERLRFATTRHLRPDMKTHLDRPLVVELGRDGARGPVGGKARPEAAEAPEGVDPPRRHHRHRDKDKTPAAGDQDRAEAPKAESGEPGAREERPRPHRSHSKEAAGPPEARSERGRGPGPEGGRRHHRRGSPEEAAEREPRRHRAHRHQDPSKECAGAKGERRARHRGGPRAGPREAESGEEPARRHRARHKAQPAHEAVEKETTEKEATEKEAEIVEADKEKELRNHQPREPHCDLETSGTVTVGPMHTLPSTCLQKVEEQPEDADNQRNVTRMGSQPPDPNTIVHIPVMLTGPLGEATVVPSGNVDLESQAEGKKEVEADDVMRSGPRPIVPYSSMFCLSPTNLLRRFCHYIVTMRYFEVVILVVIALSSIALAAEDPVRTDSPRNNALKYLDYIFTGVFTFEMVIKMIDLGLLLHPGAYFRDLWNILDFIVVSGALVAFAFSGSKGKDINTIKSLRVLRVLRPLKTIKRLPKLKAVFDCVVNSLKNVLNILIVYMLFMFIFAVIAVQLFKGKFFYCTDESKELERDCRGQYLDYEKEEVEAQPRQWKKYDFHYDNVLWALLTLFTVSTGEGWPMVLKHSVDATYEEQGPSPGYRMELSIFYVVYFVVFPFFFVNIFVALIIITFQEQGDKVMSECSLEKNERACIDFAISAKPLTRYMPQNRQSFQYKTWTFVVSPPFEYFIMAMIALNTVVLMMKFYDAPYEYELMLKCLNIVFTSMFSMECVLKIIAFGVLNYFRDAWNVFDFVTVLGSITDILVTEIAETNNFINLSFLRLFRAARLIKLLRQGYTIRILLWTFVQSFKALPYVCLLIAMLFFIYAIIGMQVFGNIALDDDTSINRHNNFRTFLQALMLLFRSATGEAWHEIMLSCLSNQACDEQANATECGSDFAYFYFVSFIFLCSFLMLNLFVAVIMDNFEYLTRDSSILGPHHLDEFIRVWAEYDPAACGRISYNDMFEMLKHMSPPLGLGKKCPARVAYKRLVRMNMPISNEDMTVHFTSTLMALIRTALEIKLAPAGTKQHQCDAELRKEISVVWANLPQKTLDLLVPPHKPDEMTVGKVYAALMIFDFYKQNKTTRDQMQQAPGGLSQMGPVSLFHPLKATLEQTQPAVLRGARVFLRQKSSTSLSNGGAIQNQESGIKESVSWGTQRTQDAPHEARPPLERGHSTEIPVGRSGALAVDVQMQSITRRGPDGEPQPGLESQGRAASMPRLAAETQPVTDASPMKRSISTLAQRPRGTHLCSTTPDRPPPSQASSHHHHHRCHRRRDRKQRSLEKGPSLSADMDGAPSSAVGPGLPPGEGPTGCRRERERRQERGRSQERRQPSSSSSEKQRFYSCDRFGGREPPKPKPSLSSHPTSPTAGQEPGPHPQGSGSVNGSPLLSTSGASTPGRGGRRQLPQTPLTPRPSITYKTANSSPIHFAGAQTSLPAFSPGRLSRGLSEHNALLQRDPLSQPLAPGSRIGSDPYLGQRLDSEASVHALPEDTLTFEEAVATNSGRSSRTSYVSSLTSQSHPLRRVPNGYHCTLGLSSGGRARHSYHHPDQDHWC
T3 sequence (Q02410 whole entry): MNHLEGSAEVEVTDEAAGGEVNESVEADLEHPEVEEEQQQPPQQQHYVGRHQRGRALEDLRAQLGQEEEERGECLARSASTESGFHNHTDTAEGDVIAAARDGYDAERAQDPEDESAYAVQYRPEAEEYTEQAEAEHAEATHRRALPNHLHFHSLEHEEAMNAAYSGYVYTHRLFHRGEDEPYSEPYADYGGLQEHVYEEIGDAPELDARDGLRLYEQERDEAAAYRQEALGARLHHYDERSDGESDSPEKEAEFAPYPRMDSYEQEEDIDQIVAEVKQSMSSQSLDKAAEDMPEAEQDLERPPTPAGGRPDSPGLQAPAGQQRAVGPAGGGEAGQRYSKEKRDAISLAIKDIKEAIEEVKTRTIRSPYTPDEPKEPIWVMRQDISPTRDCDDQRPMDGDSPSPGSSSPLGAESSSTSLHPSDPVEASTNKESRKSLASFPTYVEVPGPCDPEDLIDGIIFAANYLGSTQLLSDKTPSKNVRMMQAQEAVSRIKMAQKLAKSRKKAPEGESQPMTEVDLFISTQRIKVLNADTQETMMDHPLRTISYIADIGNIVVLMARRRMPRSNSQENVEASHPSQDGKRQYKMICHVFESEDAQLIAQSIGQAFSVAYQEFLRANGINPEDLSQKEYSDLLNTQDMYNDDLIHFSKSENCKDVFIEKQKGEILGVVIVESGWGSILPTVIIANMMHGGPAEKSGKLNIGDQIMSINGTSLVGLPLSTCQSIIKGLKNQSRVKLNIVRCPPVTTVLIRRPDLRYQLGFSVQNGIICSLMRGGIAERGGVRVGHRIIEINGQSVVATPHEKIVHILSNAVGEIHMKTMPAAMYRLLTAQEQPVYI

[8] = target: T4, Mannose-6-phosphate isomerase (Homo sapiens, UniProt P34949); experiment: inhibitors of human PMI, primary screen, biochemical, fluorescence intensity, coupled assay (AID 1209)
T4 sequence (P34949 whole entry): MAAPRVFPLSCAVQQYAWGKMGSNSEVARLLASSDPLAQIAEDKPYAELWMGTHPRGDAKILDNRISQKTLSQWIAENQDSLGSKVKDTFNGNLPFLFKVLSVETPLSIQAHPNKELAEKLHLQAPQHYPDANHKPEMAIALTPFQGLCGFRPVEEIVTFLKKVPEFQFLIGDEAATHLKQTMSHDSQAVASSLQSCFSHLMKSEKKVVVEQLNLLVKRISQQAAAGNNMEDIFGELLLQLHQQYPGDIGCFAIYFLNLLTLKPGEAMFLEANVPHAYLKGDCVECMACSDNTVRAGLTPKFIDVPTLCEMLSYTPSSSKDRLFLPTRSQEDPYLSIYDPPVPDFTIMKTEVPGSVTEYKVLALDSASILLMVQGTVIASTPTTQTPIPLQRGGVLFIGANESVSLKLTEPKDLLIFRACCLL

[9] = target: T3, Voltage-gated N-type calcium channel alpha-1B subunit/Amyloid beta A4 precursor protein-binding family A member 1; type: protein assay; remark: listed apart in the source
[10] = target: Glucose-6-phosphate 1-dehydrogenase (Homo sapiens, UniProt P11413); experiment: human G6PD enzyme inhibitors, dose response, selectivity assay for P. falciparum G6PD inhibitor project, biochemical, fluorescence (AID 504792); type: functional
Chain of Glucose-6-phosphate 1-dehydrogenase (P11413 whole entry): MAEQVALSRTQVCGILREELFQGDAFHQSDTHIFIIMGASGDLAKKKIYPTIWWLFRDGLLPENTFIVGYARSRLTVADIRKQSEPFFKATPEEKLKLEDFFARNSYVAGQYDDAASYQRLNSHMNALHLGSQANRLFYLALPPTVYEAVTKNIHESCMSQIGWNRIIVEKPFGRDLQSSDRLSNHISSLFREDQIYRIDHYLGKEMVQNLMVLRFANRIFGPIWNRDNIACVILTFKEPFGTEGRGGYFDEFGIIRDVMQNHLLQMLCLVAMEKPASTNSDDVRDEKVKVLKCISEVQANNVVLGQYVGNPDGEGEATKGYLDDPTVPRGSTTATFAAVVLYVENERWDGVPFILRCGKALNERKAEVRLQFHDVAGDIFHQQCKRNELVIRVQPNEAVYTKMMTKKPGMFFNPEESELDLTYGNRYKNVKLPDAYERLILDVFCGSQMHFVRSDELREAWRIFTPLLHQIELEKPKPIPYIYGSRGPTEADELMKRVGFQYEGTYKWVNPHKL

Vero [11] = experiment: host cell cytotoxicity of antiviral hits, dose response, cytotoxicity control for West Nile virus antiviral project, secondary assay (AID 1650); type: functional; conditions: Chlorocebus sabaeus
[12] = HIV-1 Env-mediated cell fusion inhibitors, dose response, CCR5-tropic Env (AID 2279); type: functional
Genome polyprotein = Genome polyprotein (dengue virus type 2, UniProt P29990); experiment: Dengue-2 NS5 methyltransferase inhibitors, primary screen, biochemical, confirmation dose response (AID 588689); type: functional
Cytochrome P450 2C19 = Cytochrome P450 2C19 (Homo sapiens, UniProt P33261); experiment: qHTS Assay for Inhibitors and Substrates of Cytochrome P450 2C19. [Related pubchem assays: 410 ]; type: ADME; conditions: read-out: Potency
Chain of Cytochrome P450 2C19 (P33261 whole entry): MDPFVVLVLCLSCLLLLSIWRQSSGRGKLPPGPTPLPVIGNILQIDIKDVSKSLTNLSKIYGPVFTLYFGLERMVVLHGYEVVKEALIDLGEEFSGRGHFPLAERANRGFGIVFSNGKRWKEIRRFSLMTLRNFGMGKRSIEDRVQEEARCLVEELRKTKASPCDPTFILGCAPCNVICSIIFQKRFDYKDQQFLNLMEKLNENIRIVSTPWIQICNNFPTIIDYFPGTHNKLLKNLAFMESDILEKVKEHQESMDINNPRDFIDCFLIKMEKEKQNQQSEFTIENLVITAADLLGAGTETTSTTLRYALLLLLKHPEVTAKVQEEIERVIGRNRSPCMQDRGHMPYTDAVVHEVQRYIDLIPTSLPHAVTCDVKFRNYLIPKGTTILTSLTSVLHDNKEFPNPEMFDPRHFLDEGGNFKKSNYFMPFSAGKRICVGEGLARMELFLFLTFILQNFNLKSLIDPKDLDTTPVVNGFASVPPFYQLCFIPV

Cytochrome P450 3A4 = Cytochrome P450 3A4 (Homo sapiens, UniProt P08684); conditions: Potency;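 further: confirmatory qHTS run detecting inhibitors and substrates of CYP3A4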
[13] = target: Sphingosine 1-phosphate receptor 2 (Homo sapiens, UniProt O95136); experiment: Dose Response Cell Based Assay for Agonists of the S1P2 Receptor of Purchased Analogues. [Related pubchem assays: 729, 843, 854, 736 ]; type: functional
Chain of Sphingosine 1-phosphate receptor 2 (O95136 whole entry): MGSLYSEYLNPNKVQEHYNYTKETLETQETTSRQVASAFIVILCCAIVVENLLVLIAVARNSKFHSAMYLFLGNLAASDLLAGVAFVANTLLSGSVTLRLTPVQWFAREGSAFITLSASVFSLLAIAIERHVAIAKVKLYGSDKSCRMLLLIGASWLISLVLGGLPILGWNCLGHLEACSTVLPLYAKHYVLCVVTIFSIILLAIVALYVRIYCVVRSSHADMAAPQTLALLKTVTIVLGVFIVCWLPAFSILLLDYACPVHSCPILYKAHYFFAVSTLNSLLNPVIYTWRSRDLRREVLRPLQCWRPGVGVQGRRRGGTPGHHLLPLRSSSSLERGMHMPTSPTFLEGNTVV

Vero [14] = experiment: West Nile virus antiviral activity, cell-based, CPE readout (AID 1621); type: functional; conditions: Chlorocebus sabaeus
cells [15] = conditions: A549
cells [16] = experiment: cells
cells [17] = conditions: HEK293
[18] = inhibitors of Bluetongue virus cytopathic effect, confirmation, arbovirus, BSR cells (AID 1250); type: functional;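 further: protection from viral cytopathic effect measured as cell viability by ATP luminescence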
[19] = Luminescence Cell-Based Dose Confirmation HTS to Identify Inhibitors of Polyadenylation.; type: functional
[20] = target: T5, Dual specificity protein phosphatase 6 (Rattus norvegicus, UniProt Q64346); experiment: MKP-3 phosphatase inhibitors, primary screen, biochemical, rat enzyme, in vitro (AID 425)
T5 sequence (Q64346 whole entry): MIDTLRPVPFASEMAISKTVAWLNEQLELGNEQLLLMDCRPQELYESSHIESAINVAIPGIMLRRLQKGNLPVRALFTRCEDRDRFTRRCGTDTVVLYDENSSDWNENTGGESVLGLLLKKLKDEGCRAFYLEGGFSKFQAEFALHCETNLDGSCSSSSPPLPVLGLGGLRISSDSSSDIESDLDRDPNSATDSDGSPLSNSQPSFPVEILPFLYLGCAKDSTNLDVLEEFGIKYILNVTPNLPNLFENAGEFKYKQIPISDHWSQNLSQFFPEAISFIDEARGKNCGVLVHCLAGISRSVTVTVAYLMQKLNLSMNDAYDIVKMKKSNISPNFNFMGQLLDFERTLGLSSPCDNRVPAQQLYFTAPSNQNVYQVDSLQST

[21] = A High Throughput Confirmatory Assay used to Identify Novel Compounds that Inhibit Mycobacterium Tuberculosis in the absence of Glycerol.; type: functional
[22] = microbe, parasite or virus in culture; type: functional; conditions: Mycobacterium tuberculosis
[23] = target: Heat shock protein HSP 90-alpha (Homo sapiens, UniProt P07900); type: functional, organism-based
[24] = target: Protein-tyrosine kinase 2-beta (Homo sapiens, UniProt Q14289);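 further: potency of inhibitors of PYK2 kinase phosphorylation of poly-GT substrate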
Cytochrome P450 2C9 = Cytochrome P450 2C9 (Homo sapiens, UniProt P11712)
[25] = target: Neuropeptide Y receptor type 1 (Homo sapiens, UniProt P25929); type: functional;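 further: HEK293 cells with a CNG channel challenged with NPY then isoproterenol; potency as antagonist that reverses NPY suppression of cAMP signal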
Chain of Neuropeptide Y receptor type 1 (P25929 whole entry): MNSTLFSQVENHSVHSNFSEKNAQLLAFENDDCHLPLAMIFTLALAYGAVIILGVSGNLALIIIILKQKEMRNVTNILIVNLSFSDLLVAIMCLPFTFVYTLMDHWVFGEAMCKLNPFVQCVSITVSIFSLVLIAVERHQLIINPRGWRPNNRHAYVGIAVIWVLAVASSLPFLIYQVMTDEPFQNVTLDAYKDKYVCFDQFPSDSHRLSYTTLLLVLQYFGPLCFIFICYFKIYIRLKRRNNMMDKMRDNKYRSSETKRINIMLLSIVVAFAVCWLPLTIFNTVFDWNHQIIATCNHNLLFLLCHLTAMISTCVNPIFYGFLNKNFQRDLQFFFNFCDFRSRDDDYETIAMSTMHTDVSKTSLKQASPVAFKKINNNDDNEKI

[26] = target: Neuropeptide Y receptor type 2 (Homo sapiens, UniProt P49146); type: functional, cell-based;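 further: HEK293 cells expressing the receptor and a CNG channel; stimulus was NPY near EC95 followed by isoproterenol to raise cAMP; antagonist potency measured as restoring cAMP signal that NPY suppresses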
Protein skinhead-1 = target: T6, Protein skinhead-1 (Caenorhabditis elegans, UniProt P34707); type: functional
T6 sequence (P34707 whole entry): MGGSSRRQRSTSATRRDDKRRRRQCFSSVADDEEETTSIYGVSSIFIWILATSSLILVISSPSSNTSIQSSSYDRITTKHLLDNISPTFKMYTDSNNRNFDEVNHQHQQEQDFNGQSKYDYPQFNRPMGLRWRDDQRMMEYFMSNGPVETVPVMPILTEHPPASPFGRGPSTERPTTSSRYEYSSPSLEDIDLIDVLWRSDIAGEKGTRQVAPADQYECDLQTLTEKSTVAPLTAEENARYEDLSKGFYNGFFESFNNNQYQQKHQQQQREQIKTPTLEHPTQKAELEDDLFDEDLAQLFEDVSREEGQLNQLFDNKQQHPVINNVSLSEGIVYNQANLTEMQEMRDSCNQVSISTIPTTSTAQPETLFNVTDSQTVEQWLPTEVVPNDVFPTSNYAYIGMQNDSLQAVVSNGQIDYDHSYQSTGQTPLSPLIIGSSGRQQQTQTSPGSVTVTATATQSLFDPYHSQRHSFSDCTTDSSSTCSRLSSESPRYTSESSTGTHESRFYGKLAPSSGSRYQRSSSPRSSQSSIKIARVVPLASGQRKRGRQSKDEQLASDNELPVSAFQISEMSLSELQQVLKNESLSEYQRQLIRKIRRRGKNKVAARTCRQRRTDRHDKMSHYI

Cc1ccc(S(=O)(=O)N2CCCCCC2)cc1[N+](=O)[O-]
EC50 (Mucolipin-3): 5.29 µM (active) | EC50 (Ion channel NompC): > 29.9 µM (not active) | IC50 [1]: 18.3 µM (active) | EC50 [2]: > 53 µM (inactive) | IC50 [3]: > 20 µM (inactive)

O=C(NC1C=CS(=O)(=O)C1)c1sc2ccccc2c1Cl (stereo unspecified)
IC50 [4]: 2.82 µM (active) | IC50 (Vero [5]): > 25 µM (active) | CC50 (Vero [6]): 23.9 µM (active)

O=C(Nc1nccs1)c1nc(-c2ccccc2)n(-c2ccccc2)n1
EC50 (Estrogen receptor): 18.6 µM (active)

COc1ccc(N2CSC3=C(C#N)C(c4cc(OC)c(OC)cc4OC)CC(=O)N3C2)c(OC)c1 (stereo unspecified)
IC50 [7]: 11.3 µM (active) | IC50 [8]: 4.3 µM (active) | IC50 [9]: 42.3 µM (active) | IC50 [10]: 42.5 µM (inactive)

CC(=O)Nc1cccc(C(=O)/C=C/c2ccc(F)cc2)c1
CC50 (Vero [11]): 20.6 µM (active)

CCCOc1cccc(C2C(C(=O)c3cc4ccccc4o3)=C(O)C(=O)N2c2cc(C)on2)c1 (stereo unspecified)
IC50 [12]: 44.5 µM (active) | IC50 (Genome polyprotein): 32.6 µM (active)

CCOC(=O)OCC1OC(c2ccccc2)C=CC1Oc1cccc(N(C)C)c1 (stereo unspecified)
AC50 (Cytochrome P450 2C19): 3.16 µM (inconclusive) | AC50 (Cytochrome P450 3A4): 3.16 µM (inconclusive)

Cc1cc(C(=O)CN2C(=O)NC(Cc3ccccc3)C2=O)c(C)n1Cc1ccccc1 (stereo unspecified)
EC50 [13]: > 30 µM (not active)

Cc1cccn2c(=O)c3cc(C(=O)NCCN4CCOCC4)c(=N)n(Cc4ccc(F)cc4)c3nc12
IC50 (Vero [14]): 25.6 µM (active) | IC50 (Vero [5]): > 25 µM (active) | CC50 (Vero [6]): > 25 µM (active) | AC50 (cells [15]): 18.3 µM (active) | AC50 (cells [16]): 1.96 µM (active) | AC50 (cells [17]): 48.4 µM (active)

Cc1ccc(C)c(S(=O)(=O)N2CCN(C(C)C(=O)Nc3ccccc3-c3ccccc3)CC2)c1 (stereo unspecified)
IC50 [18]: 44.1 µM (active)

COc1cc(C2CC(=O)Oc3c(C(CCN4CCOCC4)c4ccc(N(C)C)cc4)c(OC)cc(OC)c32)cc(OC)c1OC (stereo unspecified)
EC50 [19]: > 120 µM (not active)

COc1ccc(Cn2c(C)nc3c(c2=O)c2nc4ccccc4nc2n3Cc2ccco2)cc1
IC50 [20]: 6.78 µM (active)

O=C(OCC(=O)N1CCN(C(=O)c2ccco2)CC1)c1cc(-c2cccc(Br)c2)nc2ccccc12
IC50 [21]: > 100 µM (active) | CC50 [22]: 14.4 µM (active) | AC50 [23]: 4.25 µM (active)

COc1ccc(-c2coc3cc4oc(=O)cc(C)c4cc23)cc1F
IC50 [24]: 12.5 µM (not active) | AC50 (Cytochrome P450 2C9): 5.01 µM (inconclusive)

c1ccc(-c2nc(CSc3nnc(-c4cccs4)o3)cs2)cc1
IC50 [25]: 12.8 µM (not active) | IC50 [26]: 17.3 µM (not active) | IC50 (Protein skinhead-1): > 100 µM (inactive)
